In PubChem BioAssay (NCI):
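Exposure lasted 48 hours, with cells grown in 96-well plates and compounds tested at five concentrations. TGI: total growth inhibition.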

What was measured:
Test in all cases: NCI-60 cell line screen, 48 h
[1] = test system: A498 renal
[2] = test system: CCRF-CEM leukemia
[3] = test system: COLO 205 colon
[4] = test system: EKVX NSCLC
[5] = test system: M14 melanoma
[6] = test system: NCI-H460 lung
[7] = test system: NCI-H522 lung
[8] = test system: NCI/ADR-RES ovarian
[9] = test system: RPMI-8226 leukemia
[10] = test system: SK-MEL-5 melanoma
[11] = test system: SK-OV-3 ovarian
[12] = test system: SNB-75 CNS
[13] = test system: SW-620 colon
[14] = test system: TK-10 renal

c1ccc2c(OCC3CO3)ccc(OCC3CO3)c2c1 (stereo not given)
TGI [1]: 33.9 µM | TGI [2]: 11.2 µM | TGI [3]: 23 µM | TGI [4]: 32.7 µM | TGI [5]: 13.3 µM | TGI [6]: 12.5 µM | TGI [7]: 22.5 µM | TGI [8]: 31.1 µM | TGI [9]: 9.44 µM | TGI [10]: 19 µM | TGI [11]: 26.6 µM | TGI [12]: 28.4 µM | TGI [13]: 4.03 µM | TGI [14]: 26.7 µM

OC1OC(c2ccc[nH]2)C(F)(F)C(F)(F)C1(F)F (stereo not given)
TGI [1]: > 100 µM | TGI [2]: > 100 µM | TGI [3]: > 100 µM | TGI [4]: > 100 µM | TGI [5]: > 100 µM | TGI [6]: > 100 µM | TGI [7]: > 100 µM | TGI [8]: > 100 µM | TGI [9]: > 100 µM | TGI [10]: > 100 µM | TGI [11]: > 100 µM | TGI [12]: > 100 µM | TGI [13]: > 100 µM | TGI [14]: > 100 µM

CC1=C/C(=N\N(C)C)C(C(O)(C(F)(F)F)C(F)(F)F)C(C)(C)C1 (stereo not given)
TGI [1]: > 100 µM | TGI [2]: > 100 µM | TGI [3]: > 100 µM | TGI [4]: > 100 µM | TGI [5]: > 100 µM | TGI [6]: > 100 µM | TGI [7]: > 100 µM | TGI [8]: > 100 µM | TGI [9]: > 100 µM | TGI [10]: > 100 µM | TGI [12]: > 100 µM | TGI [13]: > 100 µM | TGI [14]: > 100 µM

O=C(O)c1ccccc1C(=O)OCC1CCCN2CCCCC12 (stereo not given)
TGI [1]: > 100 µM | TGI [2]: > 100 µM | TGI [3]: > 100 µM | TGI [4]: > 100 µM | TGI [5]: > 100 µM | TGI [6]: > 100 µM | TGI [8]: > 100 µM | TGI [9]: > 100 µM | TGI [10]: > 100 µM | TGI [11]: > 100 µM | TGI [12]: > 100 µM | TGI [13]: > 100 µM | TGI [14]: > 100 µM

CC(C)[Si](OCC/C=C/C1CCC(=O)C1C(O)C1CCCCC1)(C(C)C)C(C)C (stereo not given)
TGI [1]: 33.9 µM | TGI [2]: 44.6 µM | TGI [3]: 35.5 µM | TGI [4]: 28.9 µM | TGI [5]: 37.8 µM | TGI [6]: 30.7 µM | TGI [7]: 25.3 µM | TGI [8]: 27.6 µM | TGI [9]: 32.8 µM | TGI [10]: 29 µM | TGI [11]: 30.3 µM | TGI [12]: 30.1 µM | TGI [13]: 31.3 µM | TGI [14]: 32.7 µM

COCC1OCCN1C (stereo not given)
TGI [1]: > 100 µM | TGI [2]: > 100 µM | TGI [3]: > 100 µM | TGI [4]: > 100 µM | TGI [5]: > 100 µM | TGI [6]: > 100 µM | TGI [7]: > 100 µM | TGI [8]: > 100 µM | TGI [9]: > 100 µM | TGI [10]: > 100 µM | TGI [11]: > 100 µM | TGI [12]: > 100 µM | TGI [13]: > 100 µM | TGI [14]: > 100 µM

CC1(C)C[C@H]2C3=CC[C@@H]4[C@@]5(C)CC[C@H](O)C(C)(C)[C@@H]5CC[C@@]4(C)[C@]3(C)C[C@@H](O)[C@@]23C[C@@H]1OC3=O
TGI [1]: > 100 µM | TGI [2]: > 100 µM | TGI [3]: > 100 µM | TGI [4]: > 100 µM | TGI [5]: > 100 µM | TGI [6]: > 100 µM | TGI [7]: > 100 µM | TGI [8]: > 100 µM | TGI [9]: > 100 µM | TGI [10]: > 100 µM | TGI [11]: > 100 µM | TGI [12]: > 100 µM | TGI [13]: > 100 µM | TGI [14]: > 100 µM

CCN(CC)CCN1CCN=c2c3cc(OC)ccc3n3cnc4ccc1c2c43
TGI [1]: 1.82 µM | TGI [2]: 1.71 µM | TGI [3]: 2.6 µM | TGI [4]: 3.21 µM | TGI [5]: 2.85 µM | TGI [6]: 0.724 µM | TGI [7]: 3.86 µM | TGI [8]: 2.39 µM | TGI [9]: 1.3 µM | TGI [10]: 3.27 µM | TGI [11]: 5.16 µM | TGI [12]: 2.27 µM | TGI [13]: 1.82 µM | TGI [14]: 4.93 µM
